From PubChem BioAssay (NCI)
Where “and” joins values, the source holds several entries; their conditions need not be identical. Equal values may be shown once.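 96-well plates; 48 h exposure; 5 concentrations. Endpoints by linear interpolation between flanking doses. Not reached: highest tested concentration assigned. Abbreviation: GI50, concentration required for 50% inhibition of growth. TGI denotes the concentration required for complete inhibition of growth.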

Experiments:
Test in all cases: NCI tumour cell line growth inhibition, 48 h
HCT-15 colon = tested on: HCT-15 colon
PC-3 prostate = tested on: PC-3 prostate
MDA-MB-435 = tested on: MDA-MB-435
BT-549 breast = tested on: BT-549 breast
HCC-2998 colon = tested on: HCC-2998 colon
A549 NSCLC = tested on: A549 NSCLC
SN12C renal = tested on: SN12C renal
SK-MEL-2 melanoma = tested on: SK-MEL-2 melanoma
HCT-116 colon = tested on: HCT-116 colon
HOP-92 NSCLC = tested on: HOP-92 NSCLC

| SMILES | GI50 (HCT-15 colon) [µM] | TGI (HCT-15 colon) | TGI (PC-3 prostate) | GI50 (MDA-MB-435) [µM] | TGI (MDA-MB-435) | GI50 (BT-549 breast) [µM] | GI50 (HCC-2998 colon) [µM] | GI50 (A549 NSCLC) [µM] | TGI (A549 NSCLC) | GI50 (SN12C renal) [µM] | TGI (SN12C renal) [µM] | TGI (SK-MEL-2 melanoma) [µM] | GI50 (HCT-116 colon) [µM] | TGI (HCT-116 colon) | GI50 (HOP-92 NSCLC) [µM] | TGI (HOP-92 NSCLC) | TGI (BT-549 breast) [µM] | TGI (HCC-2998 colon) [µM] | GI50 (PC-3 prostate) [µM] | GI50 (SK-MEL-2 melanoma) [µM] |
| --- | --- | --- | --- | --- | --- | --- | --- | --- | --- | --- | --- | --- | --- | --- | --- | --- | --- | --- | --- | --- |
| COC1/C=C/C(C)C(C(C)C(OC)C(C)CCC(=O)C(C)C(C/C=C/N(C)C=O)OC)OC(=O)/C=C/C=C(\C)CC(OC)CC2=CC(=O)O[C@H](C2)C(C)C(OC)CC(OC)/C=C/C(C)C(OC)C1 (stereo partly specified) | 0.0142 | 0.27 µM and 0.0329 µM | 0.0387 µM and 0.0417 µM | 0.0303 | 0.472 µM and 0.311 µM | 0.108 | 0.0046 | 0.0185 | 0.271 µM and 0.284 µM | 0.143 | 47.5 | 0.0399 | 0.0066 | 0.115 µM and 0.0148 µM | 0.0161 | 0.0489 µM and 0.0313 µM |  |  |  |  |
| CC(=O)C(=Cc1ccc(C=C(C(C)=O)C(C)=O)cc1)C(C)=O |  | 3.44 µM | 5.17 µM |  | 5.66 µM |  |  |  | 25.2 µM |  | 3.07 | 5.54 |  | 1.81 µM |  | 5.87 µM | 4.6 | 7.66 |  |  |
| COc1ccc(-c2nc(/C=N/Nc3cc(C)nc4ccc(Cl)cc34)c(C)o2)cc1 | 1.52 | 3.06 µM | 3.17 µM | 1.65 | 3.07 µM | 1.95 | 1.85 | 1.73 | 3.32 µM | 1.8 | 3.42 | 24.1 | 1.82 | 3.27 µM | 1.5 | 2.98 µM | 4.28 | 3.39 | 1.66 | 10.9 |
| COc1c(O)cc2oc(-c3ccc(O)cc3)cc(=O)c2c1O |  | > 100 µM | > 100 µM |  | > 100 µM |  |  |  | > 100 µM |  | > 100 | > 100 |  | > 100 µM |  | 36.8 µM | > 100 | 80.3 |  |  |
| O=CN/C=C/c1cccc(O)c1 |  | > 100 µM | > 100 µM |  | > 100 µM |  |  |  | 79.7 µM |  | > 100 | > 81.6 |  | 75.6 µM |  | > 97.1 µM | 58.5 | > 100 |  |  |
| Nc1nc(N)c2nc(CNc3ccc(C(=O)NC(CC(=O)O)C(=O)O)cc3)cnc2n1 (stereo unspecified) | 0.526 | > 100 µM | > 75.7 µM | 0.465 | > 100 µM | 1.03 | 1.07 | 0.569 | > 100 µM | 0.922 | > 100 | > 100 | 0.0773 | > 100 µM | > 100 | > 100 µM | > 100 | > 100 | 0.319 | 0.412 |
| COC1=CC(c2ccc[nH]2)=N/C1=C\c1[nH]c(C)c(C(=O)CCCCC(=O)NC(C)(C)C)c1C | 0.683 | 2.06 µM | 2.57 µM | 1.75 | 3.47 µM | 1.41 | 1.88 | 3.34 | 21.7 µM | 2.19 | 7.32 | 42.5 | 1.2 | 2.43 µM | 1.54 | 4.97 µM | 4.5 | 6.09 | 1.21 | 17.7 |
| CNCCCn1c2c(c3ccc([N+](=O)[O-])cc3c1=O)C(=O)c1cc(OC)cnc1-2 | 0.119 | 0.714 µM | 1.88 µM | 0.15 | 1.17 µM | 0.373 | 0.204 | 0.0696 | 0.359 µM | 0.0461 | 1.2 | 0.994 | 0.0283 | 0.186 µM | 0.237 | 2.44 µM | 2.56 | 1.06 | 0.13 | 0.348 |
| Cc1ccc(-c2nc(C#N)c(S(=O)(=O)n3nc(C)cc3N)o2)cc1 | 1.9 | 3.72 µM | 29.8 µM | 10.5 | 22.7 µM | 3.85 | 19.5 | 19.6 | 39.8 µM | 3.65 | 13.9 | 32.3 | 3.16 | 13.2 µM | 2.27 | 5.71 µM | 14.8 | 38 | 13.8 | 15 |
| CC1CC2OC(=O)C(C)C2CC2(C)C(OC3OC(CO)C(O)C(O)C3O)OCCC12 (stereo unspecified) |  | > 100 µM | > 100 µM |  | > 100 µM |  |  |  | > 100 µM |  | > 100 | > 100 |  | > 100 µM |  | > 100 µM | 29.4 | > 100 |  |  |
| CCn1cnc(C[C@H](NC(=O)[C@@H](NC(=O)Nc2cc(C(F)(F)F)cc(C(F)(F)F)c2)C(C)C)C(=O)OC)c1 | > 10 | > 10 µM | 4.03 µM | 3.17 | > 10 µM | 1.78 | 2.27 | 3.19 | > 10 µM | 1.73 | 3.57 | > 10 | 1.86 | 3.93 µM | 6.88 | > 10 µM | 3.58 | 5.32 | 1.97 | > 10 |
| C=C1/C(=C\C=C2/CCC[C@]3(C)[C@@H]([C@H](C)CCCC(C)(C)O)CC[C@@H]23)C[C@@H](OC(=O)CBr)C[C@@H]1O | 1.48 | 3.31 µM | 5.88 µM | 4.22 | 10.9 µM | 1.96 | 13.6 | 6.26 | 31.5 µM | 4.93 | 11.9 | 28.6 | 2.22 | 5.9 µM | 0.138 | 0.445 µM | 4.36 | 27.5 | 1.11 | 9.75 |
| COc1cccc(-c2nn(-c3ccccc3)cc2-c2ccnc(NCCCNC(=O)Nc3ccc(Cl)c(Cl)c3)c2)c1 | 2.4 | 6.66 µM | 22.4 µM | 2.01 | 4.82 µM | 3.2 | 2.17 | 3.79 | 13.4 µM | 5.73 | 25 | 4.07 | 2.33 | 5.75 µM | 2.32 | 7.68 µM | 11.2 | 4.22 | 3.96 | 1.92 |
| COc1ccc(C2CC(C)(O)Oc3cc4c(cc32)OCO4)cc1 (stereo unspecified) |  | > 100 µM | > 81.1 µM |  | 42.9 µM |  |  |  | > 100 µM |  | > 100 | 75.2 |  | > 100 µM |  | 69.5 µM | > 88 | > 100 |  |  |
